Test results reported in patent US6469013B2, “Therapeutic compounds” (Parker Hughes Institute, priority 1998, dated 2002).

Key:
NALM-6 cells = assay: In situ TUNEL apoptosis assay; type: cell-based; conditions: Homo sapiens, 10-500 μM, 48 hours, read-out: EC50, percentage of apoptotic cells (TUNEL)
Source text: Apoptosis Assays Cells were examined for apoptotic changes after treatment with compound 6 by the in situ terminal […] transferase-mediated dUTP end-labeling (TUNEL) assay using the ApopTag apoptosis detection kit (Oncor, Gaithersburg, Md.) according to the manufacturer's recommendations, as detailed in our earlier reports (Zhu, D. -M., et al., Clin. Can. Res. 4: 2967-2976, 1998; D'Cruz, O., P., G., and Uckun, F. M. Biology of Reproduction. 58: 1515-1526, 1998).
To confirm that compound 6 can induce apoptosis in leukemia cells, the TdT-mediated labeling of 3′-OH termini with digoxigenin-conjugated UTP using the in situ TUNEL assay method combined with confocal laser scanning microscopy was employed. At 48 hours after treatment with compound 6 at concentrations ranging from 10 μM to 500 μM, NALM-6 cells were examined for digoxigenin-dUTP incorporation using FITC-conjugated anti-digoxigenin (green fluorescence) and propidium iodide counterstaining (red fluorescence). […] FIG. 8B.1 and 8B.2 depict the two-color confocal microscopy images of vehicle-treated control cells and cells treated with 100 μM compound 6. […] Because of their exquisite sensitivity in detecting DNA fragments released from a small percentage of apoptotic cells, the DNA gel assays of apoptosis are uniquely suited to examine the nonspecific toxicity of new antileukemic agents.

skh-1 mice = assay: Chronic UVB-induced skin tumorigenesis; type: in vivo, mouse
Protocol: Female, 6-7 weeks old, hairless albino mice (skh-1) were purchased from Charles River Laboratories (Wilmington, Mass.) and were housed in a controlled environment (12-h light/12-h dark photo period, 22±1° C., 60±10% relative humidity), which is fully accredited by the USDA (United States Department of Agriculture). Animals were caged in groups of five in a pathogen free environment in accordance with the rules and regulations of U.S. Animal Welfare Act, and National Institutes of Health (NIH). All mice were housed in microisolator cages (Lab Products, Inc., N.J.) containing autoclaved bedding. The mice were allowed free access to autoclaved pellet food and tap water throughout the experiments. Animal care and the experimental procedures were carried out in agreement with institutional guidelines.
Ultraviolet lamps (8-FSX24T12/HO/UVB) that emit light predominantly in the UVB range (280-320 nm) were obtained from National Biological Corporation, Twinsburg, Ohio. The irradiance of the UVB lamps was determined before each irradiation, using a UVB meter (model—500C obtained from National Biological Corporation, Twinsburg, Ohio). For exposure to UV light, three mice were placed in an open 28 cm×10 cm plastic box that was divided in three compartments (one mouse per compartment). The plastic box was placed in the center, under the bank of UVB light, and the mice were irradiated with 35 mj/cm^2 dose of UVB. The exposure time for a 35 mj/cm ^2 dose of UVB varied from 30-34 s. The distance between UVB lamps and the surface receiving irradiation was 20 cm.
The mice were treated topically with a single application of Compound 6 (1.0 mg/cm^2, dissolved in DMSO) over a 2 cm^2 area on the dorsal surface before each UVB exposure. After 15 min. following Compound 6 application the mice were irradiated with UVB (35 mj/cm). UVB exposure of mice was performed three times a week for a total of 20 weeks. Control mice were treated with vehicle prior to UVB light exposure.
The skin thickness of mice, and papillary skin lesions greater than 1 mm in diameter were measured and recorded twice every week and the average of the two measurements was used in the calculations. Skin thickness, lesion number and lesion diameter measurements were limited only to the 2 cm^2 area on the dorsal surface of mice that was being treated either with compound 6 or vehicle. Lesion volume were calculated using the formula: […]
At the end of the study, 5-19 lesions from each group were randomly biopsied, and fixed in 10% buffered formalin. Formalin-fixed specimens were embedded in paraffin blocks, sectioned at 4 μm thickness, and stained in haematoxylin-eosin. The pathological evaluation of skin sections was performed by a Certified Veterinary Pathologist who was unaware of the identity of specimens.
The pathological classification of tumors was as follows: 1) Cutaneous papilloma: a tumor papillomatous growth of acanthotic epidermis without invasive growth of tumor cells into the dermis. […] 2) Actinic keratosis: a hyperplastic, orthokeratotic, mildly to moderately acanthotic epithelium. 3) Florid actinic keratosis: actinic keratosis with mild to moderately acanthotic ridges extending into the superficial dermis, resembling superficially invasive squamous cell carcinoma. 4) Keratoacanthoma: a papillary growth with a central keratin filled crater surrounded by hyperplastic, acanthotic stratified squamous epithelium. The leading edge of the tumor pushes into the underlying dermis. 5) Squamous cell carcinoma (SCC): a tumor with atypical cell nests invading into superficial and mid dermis.

[1] = group C, 1 mg/cm^2 topical, 20 weeks
[2] = group C, 1 mg/cm^2 topical, 20 weeks, mean ± SEM

## COc1cc2ncnc(Nc3ccc(O)cc3)c2cc1OC [WHI-P131, 4-(4′-hydroxyl-phenyl)-amino-6,7-dimethoxyquinazoline]
NALM-6 cells
  EC50: 84.6 µM
skh-1 mice; group C vs group B, 20 weeks
  inhibition of occurrence of SCC/Florid actinic keratosis: about 23%
skh-1 mice; group C, 1 mg/cm^2 topical before each UVB 35 mj/cm^2, 20 weeks, mean ± SEM
  No. of lesions/mouse: 1.6 ± 0.4
skh-1 mice; [1]
  Percentage of mice with Actinic keratosis: 53 Percentage
  Percentage of mice with Keratoacanthomas: 0 Percentage
  Percentage of mice with Papilloma: 7 Percentage
  Percentage of mice with SCC/Florid actinic keratosis: 57 Percentage
skh-1 mice; [2]
  Avg. Vol/lesion: 1.9 ± 0.5
  Skin lesion volume/mouse: 3.2 ± 0.9
skh-1 mice; weeks of UVB-irradiation, vehicle group around 10 weeks
  onset of lesions (first lesion observed after): 14 weeks
